Test results reported in patent US6613536B1, “Synthetic peptides and pharmaceutical compositions comprising them for the treatment of systemic lupus erythematosus” (Yeda Research and Development Co. Ltd., priority 1995, dated 2003).

Key:
[1] = tested on: SJL/J and BALB/c mice; experiment: Anti-DNA antibodies in sera of immunized mice (ELISA); type: in vivo, mouse; conditions: for anti-DNA antibodies in sera: sera three months after booster; for levels of autoantibodies including anti-DNA and anti-NE antibodies: SJL mice immunized with IIIa, BALB/c mice immunized with Ia
Description: ELISA was utilized for the detection and quantitation of antibodies in experimental mice, and in humans. Polystyrene microtiter plates were coated with the relevant antigen or antibody, and sera dilutions or supernatants derived from the human or mouse cell cultures were added to the blocked plates. Specific binding was determined following the addition of peroxidase-conjugated antibodies against the appropriate immunoglobulin (Ig) (e.g. goat anti-human or goat anti-mouse peroxidase-conjugated antibodies) and the peroxidase substrate. Optical densities were read at 414 nm using an ELISA reader.
SJL/J and BALB/c female mice (6-8 week old) were immunized with 20 μg of peptide Ia or IIIa of the invention, or with a control peptide designated p278 (the peptide desinated Pep 278h described in published PCT International Application WO 94/03208) or with mAb 5G12 emulsified in complete Freund's adjuvant (CFA) in the foot pads. Three weeks later the mice received a booster injection with the same amount of peptide or mAb, in PBS. Thereafter, blood was drawn every two weeks. A fifth group included non-immunized mice.
ELISA was utilized to test the presence of the anti-DNA antibodies in the sera of the mice, as follows : Plates (Nunc) were coated for 90 min with 10 μg/ml of methylated BSA. Thereafter the plates were washed (all the washes were 3 times with PBS/0.05% Tween 20 (Sigma)) and incubated for an additional 90 min with 10 μg/ml of single-stranded DNA (calf thymus DNA (Sigma) that was heated for 15 min at 90° C. and fast-cooled). The plates were washed and blocked overnight with 1% ovalbumin in PBS (Sigma). Thereafter, the plates were washed and incubated with the sera of the mice diluted in the blocking reagent, followed by wash and incubation with 1:500 dilution of goat anti-mouse IgG (Fc receptor specific) polyclonal antibody conjugated to peroxidase. The plates were then washed and developed using ABTS substrate (Sigma), and the color was read using an ELISA reader at 414 nm. Results are expressed as mean OD of each mouse group (5 mice per group).

[2] = tested on: lymph node cells (LNC) of BALB/c and SJL mice; experiment: In vivo inhibition of LNC proliferation responses to the CDR-based peptides; set-up: species or system mouse; conditions: LNC of treated mice; not shown
Description: BALB/c (FIG. 5a) and SJL (FIG. 5b) mice were immunized with peptides Ia and IIIa (20 μg/mouse in CFA i.d. in the hind footpads), respectively. The mice were also injected i.v. with 200 μg of the above peptides in PBS either 3 days prior to immunization (open squares), at the immunization day (open circles) or at both dates (open triangles). Ten days later the mice were sacrificed and their lymph nodes were removed and tested for proliferation in the presence of different concentrations of the immunizing peptide. Control groups were of LNC taken from mice that were immunized but not treated (filled squares), or treated with control peptide, p307 (half filled squares). The culture mixtures were incubated for 96 hours in enriched RPMI medium containing 1% normal mouse serum prior to addition of ^3H-thymidine. Sixteen hours later cells were harvested and radioactivity was counted. Results are expressed as mean CPM of triplicates.

[3] = tested on: T cell line specific to peptide IIIa of SJL origin; experiment: Proliferation and cytokine secretion of peptide IIIa-specific T cell line; type: cell-based, mouse
Description: A further test which can be conducted is to test for the ability of the analogs to inhibit cytokine secretion by the T cell line or by T lymphocytes oh lymph nodes of mice that are high responders to SLE-inducing autoantibodies. The cytokines are detected as follows: IL-1 activity is assessed either by ELISA using a pair of capture and detecting antibodies (as described below for IL-4, IL-6, IL-10) or using the LBRM-33(1A5) assay (Conlon, 1983) in which 1A5 cells are stimulated in the presence of phytohemagglutinin (PHA), with either supernatants or recombinant IL-1 at various concentrations to secrete IL-2. […] Stimulation of the CTLL line by IL-2 is measured after 24 hr by incorporation of ^3[H]-thymidine. IL-2 is directly detected using the IL-2 dependent CTLL line or by ELISA. Levels of IL-4, IL-6, IL-10, INFγ and TNFα in the supernatants are determined by ELISA using antibodies to the various cytokines (Phamingen, San Diego, Calif., USA) according to the manufacturer's instructions.
T cell lines and clones specific to the 16/6 Id were established from immunized lymph node cells as previously described (Axelrod and Mozes, 1986). […] At the end of 48 hours incubation, 0.5 μCi of ^3H-thymidine were added for an additional 18 hours, after which cells were harvested and radioactivity was counted. […]

[4] = BALB/c mice immunized with 20 μg in CFA plus booster
[5] = SJL/J mice immunized with 20 μg in CFA plus booster

With “TGYYMQWVKQSPEKSLEWIG [peptide Ia]” the “anti-DNA antibodies in sera” value [1, 4] was “show presence of anti-DNA antibodies”, the “levels of autoantibodies including anti-DNA and anti-NE antibodies” value [1] was “elevated levels of autoantibodies” and the “anti-DNA antibodies in sera” value [1, 5] was “Low levels of anti-DNA antibodies”. The “proliferative responses of the LNC to Con A (specificity)” value [2] was “not inhibited”.

For “YYYCARFLWEPYAMDYWGQGS (YYCARFLWEPYAMDYWGQGS) [peptide IIIa, based on the CDR3 region of the VH chain of mAb 5G12]”, the “anti-DNA antibodies in sera” value [1, 4] was “did not show presence of anti-DNA antibodies”, the “levels of autoantibodies including anti-DNA and anti-NE antibodies” value [1] was “elevated levels of autoantibodies” and the “anti-DNA antibodies in sera” value [1, 5] was “high level of anti-DNA antibodies”. For the same substance, the “cytokine secretion of T cell line upon stimulation” value [3] was “secreted the Thl-type cytokines, namely, IL-2, IFNγ and TNFα” and the “proliferative responses of the LNC to Con A (specificity)” value [2] was “not inhibited”.
